Results: patent publication US4402961A, “Derivatives of 1-(2-,3- or 4-quinolyl)-2- or -3-(2- or 3-piperidyl or -pyrrolidinyl) ethanone or propanone, and their utilization as antiarrhythmics, anticonvulsivants and for the treatment of anxiety” (Pharmindustrie, priority 1980, dated 1983)

Experiments:
[1] = target: Cerebral Binding Sites of the Benzodiazepines
Description: Affinity for the Cerebral Binding Sites of the Benzodiazepines

[2] = test system: ventricular arrhythmias caused by the aconitine; experiment: aconitine test on the rat (antiarrhythmic activity); format: in vivo; settings: iv, read-out: ED50, dose which increases by 50% the time of perfusion of the aconitine versus control animals
Method: The principle of the method rests on the time of induction of the ventricular arrhythmias caused by the aconitine which is slowly perfused in rats. An antiarrhythmic substance retards the appearance of the arrhythmias and the delay is proportional to the activity of the molecule.
Groups of 5 male rats are used. An individual annesthesia is realized (10% urethane: 1 g/kg/ip) in order to permit a catheterization of the vein of the penis. The electrocardiogram is recorded. At time T=O the substance studied is injected in the form of an aqueous solution, at the rate of 2.5 ml of solution per kg in 30 seconds. At time T=90 seconds, say 1 minute after the end of the injection, the aconitine is perfused at the rate of 20 μg per minute, until the appearance of extra […] systoles. The time of perfusion of the aconitine is noted.
The results are expressed by ED50, which is the dose of product in mg/kg which increases by 50% the time of perfusion of the aconitine in comparison with the perfusion time of aconitine for the control animals.

[3] = target: Cerebral Binding Sites of the Benzodiazepines; experiment: displacement of tritiated Diazepam (3H Diazepam) from cerebral benzodiazepine binding sites (method of Mohler and Coll.); settings: read-out: KD, constant of affinity of 3H Diazepam; constant used in the Ki formula

Compound	Ki [1] [nM]	ED50 [2] [mg/kg]	Kd [3] [nM]
COc1ccc2nccc(C(=O)CCC3CCCNC3)c2c1 (stereo not drawn) [Example 1, 1-[4-(6-methoxy)quinolyl]-3-(3-piperidyl)-1-propanone]	2000	–	–
O=C(CC1CCCNC1)c1cc(-c2ccccc2)nc2ccccc12 (stereo not drawn) [Example 3, 1-[4-(2-phenyl)quinolyl]-2-(3-piperidyl)-ethanone]	–	2.8	–
O=C(CCC1CCCNC1)c1cc(-c2ccccc2)nc2ccccc12 (stereo not drawn) [Example 4, 1-[4-(2-phenyl)quinolyl]-3-(3-piperidyl)-1-propanone]	800	–	–
COc1ccc2nccc(CCCC3CCCNC3)c2c1 (stereo not drawn) [Example 11, 6-methoxy-4-[3-(3-piperidyl)-propyl]-quinoline]	5500	7.8	–
c1ccc(-c2cc(CCC3CCCNC3)c3ccccc3n2)cc1 (stereo not drawn) [Example 13, 2-phenyl-4-[2-(3-piperidyl)-ethyl]-quinoline]	100	–	–
c1ccc(-c2cc(CCCC3CCCNC3)c3ccccc3n2)cc1 (stereo not drawn) [Example 14, 2-phenyl-4-[3-(3-piperidyl)-propyl]-quinoline]	1000	2.2	–
Clc1ccc(-c2cc(CCC3CCCNC3)c3ccccc3n2)cc1 (stereo not drawn) [Example 20, 2-(4-chloro-phenyl)-4-[2-(3-piperidyl)-ethyl]-quinoline]	1600	–	–
c1ccc(-c2cc(CCC3CCCCN3)c3ccccc3n2)cc1 (stereo not drawn) [Example 22, 2-phenyl-4-[2-(2-piperidyl)-ethyl]-quinoline]	600	–	–
CN1CCCC(CCc2cc(-c3ccccc3)nc3ccccc23)C1 (stereo not drawn) [Example 23, 4-{2-[3-(1-methyl)piperidyl]-ethyl}-2-phenyl-quinoline]	900	–	–
CN1CCCC(CCCc2cc(-c3ccccc3)nc3ccccc23)C1 (stereo not drawn) [Example 24, 4-{3-[3-(1-methyl)piperidyl]-propyl}-2-phenyl-quinoline]	3000	–	–
c1ccc(-c2cc(CCC3CCNC3)c3ccccc3n2)cc1 (stereo not drawn) [Example 29, 2-phenyl-4-[2-(3-pyrrolidinyl)-ethyl]-quinoline]	700	–	–
c1ccc(-c2cc(CCCC3CCCCN3)c3ccccc3n2)cc1 (stereo not drawn) [Example 30, 4-[3-(2-piperidyl)-propyl]-2-phenyl-quinoline]	2700	–	–
CN1C(=O)CN=C(c2ccccc2)c2cc(Cl)ccc21 [^3 H Diazepam]	–	–	2740
